Source: a melting point compilation (Tetko et al.; mined from patent text by program, amines drawn as free bases though some values may be those of a salt)

| SMILES | melting point [°C] |
| --- | --- |
| CCN(c1ccc(Br)cc1)S(=O)(=O)C(F)(F)F | 59 to 60 |
| O=C(Cc1ccccc1Br)NC1CCC1 | 159 to 161 |
| COc1cc(OC)c2c(C)c(CCOS(C)(=O)=O)c(=O)oc2c1 | 170 to 172 |
| FC(F)(F)c1ccc2c(C3CCNCC3)c[nH]c2c1 | 210 to 214 |
| Cc1cc(Cn2nnn(-c3ccc(C(F)(F)F)cc3)c2=O)ccc1N | 210 to 211 |
| Cc1cc(OC(C)c2sc(-c3ccc(C(F)(F)F)cc3F)nc2C)ccc1OC(C)(C)C(=O)O (stereo unspecified) | 133 |
| COc1cc2ncc(C#N)c(Nc3cccc(CO)c3C)c2cc1OC | 123 to 125 |
| CC[C@@H](NC(=O)N1CC(=O)NCC(Cc2cc(Cl)ccc2OC)C1=O)C(=O)Nc1ccc(C)c(C(=O)O)c1 (stereo partly specified) | 132 to 134 |
| CCOC(=O)NS(=O)(=O)c1ccc(C(=O)C=Cc2cc(-c3cc4ccccc4[nH]3)c(OC)cc2OC)cc1 | 165 to 175 |
| Cc1cc(I)ccc1O | 64 to 65 |
| CC(=O)c1ccc(S(=O)(=O)NCCN(C)C)cc1 | 87 to 89 |
| Cn1c(S)nc(-c2ccncc2)cc1=O | 250 to 252 |
| O=C1c2ccccc2C(=O)N1CC#Cc1ccc2c(c1)C(c1ccccc1F)=NCc1nnc(C(F)(F)F)n1-2 | 204 to 206 |
| CON=C(N)C1=Nc2ccc(Cl)cc2C(c2ccccc2F)=NC1 | 120 to 124 |
| COc1cc(C(C)=NN)ccc1OCCCN1CCC(c2noc3cc(F)ccc23)CC1 | 106 to 108 |
| Cc1ccc(CC(CNC(=O)C(C)c2ccc(NS(C)(=O)=O)c(F)c2)COC(=O)C(C)(C)C)cc1C (stereo unspecified) | 46 to 48 |
| O=C(C1=C(c2ccccc2)c2ccc(O)cc2CC1)c1ccc(O)cc1 | 205 to 207 |
| COc1cn(-c2ccc(N3CC(F)(F)C3)cc2F)nc(-c2ccnn2-c2ccccc2)c1=O | 204 to 206 |
| Nc1nc(N)nc(-c2cncc(Br)c2)n1 | > 260 |
| C(=C\c1cc(/C=C/c2ccc3cc[nH]c3c2)n[nH]1)/c1cccc(OCc2ccccn2)c1 | 193 to 195 |
| O=C(NN=C(c1ccc(Cl)cc1)c1ccc(OC(F)(F)C(Cl)Cl)cc1)OCC(Cl)(Cl)Cl | 97 to 103 |
| COc1ccc2c(c1)OC(c1ccc(Cl)cc1)CC2=O (stereo unspecified) | 97 to 99 |
| CC(=O)C(=Cc1ccc([N+](=O)[O-])o1)C(C)=O | 117 to 120 |
| COc1cc(O)c(C(=O)C=Cc2ccc3c(c2)OCO3)c(OC)c1 | 162 |
| O=C(O)C(O)c1cccc(OCc2ccccc2Cl)c1OCc1ccncc1 (stereo unspecified) | 181 to 183 |
| CC(=O)N(Cc1ccc(C[C@@H](C(=O)O)n2cccc2)cc1)Cc1nc(-c2ccccc2)oc1C | 97 to 100 |

| SMILES | melting point [°C] |
| --- | --- |
| CCCCCCCCCCCCCC(=O)NC1CC(C)(C)N(CC#N)C(C)(C)C1 | 106 |
| CCOC(=O)c1cc2c(=O)ccoc2nc1C(=O)OCC | 71 to 72 |
| CCCSc1ccc([N+](=O)[O-])c(NC(=S)NC(=O)OC)c1 | 122 to 125 |
| COC[C@@H]1[C@@H](c2ccc(Cl)c(Cl)c2)C[C@@H]2CC[C@H]1N2C | 73 to 76 |
| COCCN1CCc2cc(Nc3ncc(Cl)c(Nc4ccccc4NS(C)(=O)=O)n3)c(OC)cc2CC1 | 107 to 112 |
| CC(C)=CC(O)C(Cl)(Cl)Cl (stereo unspecified) | 83 |
| O=C1c2ccccc2C(=O)N1Cc1cnc(Cl)s1 | 108 to 109 |
| CC1(C)Nc2c(Cl)cccc2NC1=O | 153 to 156 |
| CC(C)Cn1c(CNC(=O)OC(C)(C)C)c(-c2cccs2)c2cc(C(=O)O)ccc2c1=O | 224 to 226 |
| CC(=O)Oc1ccc2c(c1)CCCO2 | 76 to 77 |
| O=C(OCc1ccccc1)N1CCN(c2ccc(-c3ccnc(Nc4ccc5[nH]nnc5c4)n3)cn2)CC1 | 247 to 249 |
| O=C(NO)c1ccc(C(=O)NOCc2cccc3ccccc23)cc1 | 192 to 194 |
| COC(=O)c1cccc([N+](=O)[O-])c1-c1ccc2ccccc2c1OC | 139 to 141 |
| CC(=O)Oc1ccc(-c2ccc(O)cc2)cc1 | 204 to 207 |
| COc1ccc(Nc2cnc3cnc(-c4ccc(O)cc4)nc3c2)cc1 | 134 to 136 |
| CC(C)(C)OC(=O)NC(CC#N)COc1noc2ccc(Cl)cc12 (stereo unspecified) | 147 to 148 |
| CCOC(=O)c1ccc(-c2ccc(-c3ccccc3O)c(-c3ccc4c(c3)C(C)(C)CCC4(C)C)c2)cc1 | 161 to 163 |
| CCc1ccccc1NC(=O)c1ccccc1SSc1ccccc1C(=O)Nc1ccccc1CC | 255 to 256 |
| CCCCCCCCCCOC(=O)OC(C)OC1=C(C(=O)Nc2ccccn2)N(C)S(=O)(=O)c2ccccc21 (stereo unspecified) | 84 to 86 |
| O=C(O)c1cc(SC(F)(F)F)c(-c2ccc(Cl)cc2)[nH]1 | 176 to 178 |
| CC(C)c1ccc(S(=O)(=O)c2ccccc2)c(C(C)C)c1 | 105 to 107 |
| CCOC(=O)C1=C(COCC#CC(N)=O)NC(C)=C(C(=O)OC)C1c1cccc(Cl)c1Cl (stereo unspecified) | 147 to 148 |
| CCC(C)(C)N1C(=O)C(=O)N(c2ccc(C#N)cc2)C1=S | 173 to 174 |
| Cc1cc(C2=NOC(c3cc(Cl)cc(Cl)c3)(C(F)(F)F)C2)ccc1C(=O)NC1CON(CCO)C1=O (stereo unspecified) | 78 |
| Nc1sccc1C(=O)c1ccc(F)cc1 | 178 |
| CCCOc1ccccc1-c1nc2nc(NCCCSC)ncc2c(=O)[nH]1 | 173 to 174 |

| SMILES | melting point [°C] |
| --- | --- |
| CCC(=O)C1c2cccc(O)c2C(=O)c2c(OC(=O)C(C)C)cccc21 (stereo unspecified) | 111 |
| O=C(Nc1cc(F)c(-c2cccnc2)c(F)c1)OCc1ccccc1 | 188 to 190 |
| CCc1cc(=O)c2c([nH]1)CCCC2 | 133 to 137 |
| O=C(O)C1=C(SCc2ccccc2)CCC1 | 233 |
| CN(C)C1CCN(c2ccc(NC(=O)n3ccc4cc(Oc5cc(CC(N)=O)ncn5)ccc43)cc2C(F)(F)F)C1 (stereo unspecified) | 182 to 184 |
| CS(=O)(=O)c1ccc(C2=C(c3ccc(CO)cc3)CCC2)cc1 | 114 to 115 |
| O=C(O)Cc1ccc(OCCNC(=O)C2Cc3ccccc3N2S(=O)(=O)c2ccc(-c3cc(F)ccc3Cl)cc2)cc1 (stereo unspecified) | 78 to 84 |
| Clc1ccc2c(c1)Oc1ccccc1C=C2CBr | 117 to 119 |
| OCC1OC(n2cnc3c(NCCc4c[nH]c5ccccc45)ncnc32)C(O)C1O (stereo unspecified) | 187 |
| NCC1(O)c2ccccc2C=Cc2ccccc21 | 117 to 120 |
| C=CCc1c(OCCCOc2ccc(C(C)=O)c(O)c2CCC)ccc2oc(C(=O)O)cc12 | 157 to 158 |
| CCOC(=O)Cc1c[nH]c2nc(Nc3ccccc3)nn2c1=O | 255 to 257 |
| CC1(c2ccccc2)OC(=O)Nc2ccc(-c3cccc(Cl)c3)cc21 (stereo unspecified) | 179 to 180 |
| CON=C(c1ncno1)c1ccccc1COc1ccc(Cl)cc1 | 96 to 97.5 |
| CC1(C)COc2ccc(C[C@H](N)[C@H](O)c3cccc(Cl)c3)cc21 (racemic) | 83 to 86 |
| Nc1nc(Cl)c2ncn(COCCOC(=O)c3ccccc3)c2n1 | 130 to 134 |
| Nc1nsnc1-c1ccc(Cl)cc1 | 132 to 133 |
| O=S(=O)(CC=C1CCCCC1)c1ccccc1 | 70 |
| N#CCSc1ccc([N+](=O)[O-])cc1 | 77 to 79 |
| CCNC(=O)NSC(=S)N(C)C | 173 to 175 |
| O=C(O)c1c[nH]c(CCc2ccccc2)n1 | 126 to 130 |
| O=C(COc1ccc(C(=O)C(=O)O)cc1)NC1CCCCCCC1 | 139 to 140 |
| CN(c1cccc2cc(C3=NCC(CC(=O)N4CCS(=O)CC4)S3)[nH]c12)S(=O)(=O)c1cccs1 (stereo unspecified) | 149 |
| Cc1ccc(S(=O)(=O)C2CCCN(S(=O)(=O)c3ccc(C)cc3)C2)cc1 (stereo unspecified) | 124 to 142 |
| COc1ccc(NC(=O)c2ccc(C3(C#N)CCCC3)cc2)cc1 | 163 to 168 |
| Cn1cc(C(=O)C(=O)Oc2c(F)c(F)c(F)c(F)c2F)c2ccccc21 | 168 to 169 |

| SMILES | melting point [°C] |
| --- | --- |
| COc1ccc(-c2oc3cc(OC)cc(O)c3c(=O)c2OC)cc1 | 143 to 145 |
| Cc1cccc(C)c1N(CCn1ccnc1)C(=O)CCCc1cccnc1 | 104 to 106 |
| COc1ccc(C2=NN(Cc3ccc(C(=O)NC4CCCC4)cc3)C(=O)CC2)cc1OC | 147 |
| Nc1ccc(-c2nc3ccccc3s2)cc1Cl | 160 to 162 |
| CC1(C)CC(=O)c2c(-c3ccccc3)sc(-c3nccs3)c2C1 | 141 to 143 |
| O=S(=O)(NCCCCOc1ccc(-n2ccnc2)cc1)c1cc(Cl)ccc1Cl | 144 to 146 |
| COC(=O)c1ccc(-c2nn(Cc3ccccc3)c3ccccc23)o1 | 137 to 138 |
| O=C(CNc1ccccc1Cl)Nc1c(Cl)ccc2nc(N3CC[C@@H](O)C3)ccc12 | 215 to 219 |
| CNc1cc(S(=O)(=O)c2ccccc2)cc(Br)n1 | 145 to 148 |
| CNC(=O)N(C)C1c2ccccc2Oc2ccccc21 | 173 to 174 |
| COc1ccc2ncc(CO)c(O)c2c1 | 327 to 334 |
| CCOP(=O)(COCCOn1cnc2c(N)nc(N)nc21)OCC | 139 to 141 |
| CCCCNC1=NS(=O)(=O)c2ccc(Cl)cc2N1 | 267 to 269 |
| O=C(O)CCc1oc(-n2ccnc2-c2ccccc2)nc1-c1ccc(Cl)cc1 | 179 to 180 |
| O=C(O)c1nc(-c2ccc(Cl)cc2Cl)c(-c2ccc(Br)cc2)s1 | 94 to 95 |
| C=Cn1cc(C(=O)O)c(=O)c2cc(F)c(N3CCC4CCC(C3)N4C)cc21 (stereo unspecified) | 214 to 215 |
| Cn1c2sc(C(=O)O)cc2c2cccc(Cl)c21 | 233 to 234 |
| CSc1ncc(C(=O)N(C)Cc2cc(C(F)(F)F)cc(C(F)(F)F)c2)c(-c2ccccc2)n1 | 119 to 120 |
| CCCCOCCOc1ccc(-c2ccc(N3CCCCCC3)c(C=C(C)C(=O)OC)c2)cc1 | 86 to 89 |
| CCOC(=O)/C=C(C)/C(F)=C/C=C(C)/C=C/c1c(Cl)cc(OC)c(Cl)c1Cl | 140 to 142 |
| c1cnc2c(c1)N(c1ccc3[nH]cc(C4CCNCC4)c3c1)CN2 | 260 to 268 |
| Cc1ccc(C#CC#Cc2ccc(C)cc2)cc1 | 182 to 183 |
| CCCCCCCCCCCCNC(=O)c1ccccc1N | 73 to 75 |
